The values below come from patent US6239130A, “Phosphodiesterase 4-inhibiting diazepinoindolones” (Warner-Lambert Company, priority 1997, dated 2001).

Structures can show the parent of a compound that is named as a salt. Bounds are passed on as bounds.

The first assay has as its system PDE4 enzyme of human origin. Put plainly: PDE4-inhibiting activity on an enzyme preparation obtained from the U937 cell line. The class given is biochemical.
Settings: not given
The procedure: In the case of the PDE4 enzymes, this value is compared with that of rolipram, a specific PDE4 inhibitor. […] Measurement of the enzyme activity of the different types of PDE, and especially of the PDE4 enzymes, is then carried out according to a method adapted from W. J. Thompson, ibidem.
Consider `Cc1cc2c3c(c1)C(c1ccccc1)=NC(n1c(C)nc4cc(C(=O)O)ccc4c1=O)C(=O)N3CC2` (racemic) [Example 7, 2-methyl-3-(9-methyl-4-oxo-1-phenyl-3,4,6,7-tetrahydro-[1,4]diazepino[6,7,1-hi]indol-3-yl)-4-oxo-3,4-dihydroquinazoline-7-carboxylic acid], for which 52 nM corresponded to half-maximal inhibition (IC50). For `Cc1cc2c3c(c1)C(c1ccccc1)=N[C@H](n1c(C)nc4cc(C(=O)O)ccc4c1=O)C(=O)N3CC2` [7D(R), (3R)-2-methyl-3-(9-methyl-4-oxo-1-phenyl-3,4,6,7-tetrahydro[1,4]diazepino[6,7,1-hi]indol-3-yl)-4-oxo-3,4-dihydroquinazoline-7-carboxylic acid], the IC50 (in general, the point on the concentration scale where inhibition reaches its midpoint) was determined as 982 nM. In the case of `Cc1cc2c3c(c1)C(c1ccccc1)=N[C@@H](n1c(C)nc4cc(C(=O)O)ccc4c1=O)C(=O)N3CC2` [7E(S), (3S)-2-methyl-3-(9-methyl-4-oxo-1-phenyl-3,4,6,7-tetrahydro[1,4]diazepino[6,7,1-hi]indol-3-yl)-4-oxo-3,4-dihydroquinazoline-7-carboxylic acid], the midpoint of inhibition, the IC50, lay at 35 nM. Compound `Cc1nc2ccccc2c(=O)n1[C@@H]1N=C(c2ccccc2)c2cccc3c2N(CC3)C1=O` [Example 1, (3S)-3-(2-methyl-4-oxo-4H-quinazolin-3-yl)-1-phenyl-6,7-dihydro-3H[1,4]diazepino[6,7,1-hi]indol-4-one] showed an IC50 of 448 nM.

The compound `Cc1cc2c3c(c1)C(c1ccccc1)=NC(n1c(C)nc4ccccc4c1=O)C(=O)N3CC2` (stereo not drawn) [Example 2, 9-methyl-3-(2-methyl-4-oxo-4H-quinazolin-3-yl)-1-phenyl-6,7-dihydro-3H-[1,4]diazepino [6,7,1-hi] indol-4-one] had an IC50 of 146 nM. On to `COc1cc2c3c(c1)C(c1ccccc1)=NC(n1c(C)nc4ccccc4c1=O)C(=O)N3CC2` (stereo not drawn) [Example 2A, 9-methoxy-3-(2-methyl-4-oxo-4H-quinazolin-3-yl)-1-phenyl-6,7-dihydro-3H-[1,4]diazepino [6,7,1-hi] indol-4-one], for which the IC50 was found to be 183 nM. Still for that read-out and setting: as for `COC(=O)c1ccc2c(=O)n(C3N=C(c4ccccc4)c4cc(OC)cc5c4N(CC5)C3=O)c(C)nc2c1` (stereo not drawn) [Example 2B, Methyl 2-methyl-3-(9-methoxy-4-oxo-1-phenyl-3,4,6,7-tetrahydro[1,4]diazepino[6,7,1-hi]indol-3-yl)-4-oxo-3,4-dihydroquinazoline-7-carboxylate], the figure is 67 nM; as for `COc1cc2c3c(c1)C(c1ccccc1)=NC(n1c(C)nc4cc(C(=O)O)ccc4c1=O)C(=O)N3CC2` (stereo not drawn) [Example 2C, 2-methyl-3-(9-methoxy-4-oxo-1-phenyl-3,4,6,7-tetrahydro[1,4]diazepino[6,7,1-hi]indol-3-yl)-4-oxo-3,4-dihydroquinazoline-7-carboxylic acid], 108 nM; as for `Cc1cc2c3c(c1)C(c1ccccc1)=N[C@@H](n1c(C)nc4cccc(C)c4c1=O)C(=O)N3CC2` [Example 3, (3S)-9-methyl-3-(2,5-dimethyl-4-oxo-4H-quinazolin-3-yl)-1-ph enyl-6,7-dihydro-3H-[1,4]-diazepino[6,7,1-hi]indol-4-one], 141 nM. `Cc1cc2c3c(c1)C(c1ccccc1)=N[C@@H](n1c(C)nc4ccc(C)cc4c1=O)C(=O)N3CC2` [Example 4, (3S)-9-methyl-3-(2,6-dimethyl-4-oxo-4H-quinazolin-3-yl)-1-phenyl-6,7-dihydro-3H-[1,4]diazepino[6,7,1-hi]indol-4-one] registered an IC50 of 553 nM.

With `Cc1cc2c3c(c1)C(c1ccccc1)=N[C@@H](n1c(C)nc4c(C)cccc4c1=O)C(=O)N3CC2` [Example 5, (3S)-9-methyl-3-(2,8-dimethyl-4-oxo-4H-quinazolin-3-yl)-1-ph enyl-6,7-dihydro-3H-[1,4]diazepino[6,7,1-hi]indol-4-one], the IC50 came out at 832 nM. Same read-out and setting: in the case of `COc1cccc2nc(C)n(C3N=C(c4ccccc4)c4cc(C)cc5c4N(CC5)C3=O)c(=O)c12` (stereo not drawn) [Example 6, 3-(5-methoxy-2-methyl-4-oxo-4H-quinazolin-3-yl)-9-methyl-1-phenyl-6,7-dihydro-3H-[1,4]diazepino[6,7,1-hi]indol-4-one] it was 3020 nM.

In the case of `COc1ccc2c(=O)n(C3N=C(c4ccccc4)c4cc(C)cc5c4N(CC5)C3=O)c(C)nc2c1` (stereo not drawn) [Example 6A, 3-(7-methoxy-2-methyl-4-oxo-4H-quinazolin-3-yl)-9-methyl-1-phenyl-6,7-dihydro-3H-[1,4]-diazepino[6,7,1-hi]indol-4-one], inhibition was half-maximal at 133 nM (IC50). Compared with the last compound, the IC50 is about 23-fold lower.

Turning to `COc1ccc2nc(C)n(C3N=C(c4ccccc4)c4cc(C)cc5c4N(CC5)C3=O)c(=O)c2c1` (stereo not drawn) [Example 6B, 3-(6-methoxy-2-methyl-4-oxo-4H-quinazolin-3-yl)-9-methyl-1-phenyl-6,7-dihydro-3H-[1,4]-diazepino[6,7,1-hi]indol-4-one], the half-maximal inhibitory concentration (IC50) was determined as 1420 nM.

In turn, `Cc1cc2c3c(c1)C(c1ccccc1)=NC(n1c(C)nc4ccc(Br)cc4c1=O)C(=O)N3CC2` (stereo not drawn) [Example 6C, 3-(6-bromo-2-methyl-4-oxo-4H-quinazolin-3-yl)-9-methyl-1-phenyl-6,7-dihydro-3H-[1,4]diazepino-[6,7,1-hi]indol-4-one] gave an IC50 of 838 nM. The compound `Cc1cc2c3c(c1)C(c1ccccc1)=NC(n1c(C)nc4cccc(CO)c4c1=O)C(=O)N3CC2` (stereo not drawn) [Example 6D, 3-(5-hydroxymethyl-2-methyl-4-oxo-4H-quinazolin-3-yl)-9-methyl-1-phenyl-6,7-dibydro-3H-[1,4]-diazepino[6,7,1-hi]indol-4-one] yielded an IC50 of 372 nM. Compound `Cc1cc2c3c(c1)C(c1ccccc1)=NC(n1c(C)nc4cccc(C(=O)OC(C)(C)C)c4c1=O)C(=O)N3CC2` (stereo not drawn) [Example 6E, tert-Butyl 2-methyl-3-(9-methyl-4-oxo-1-phenyl-3,4,6,7-tetrahydro-[1,4]diazepino[6,7,1-hi]indol-3-yl)-4-oxo-3,4-dihydroquinazoline-5-carboxylate] came in with a concentration for half-maximal inhibition (IC50) greater than 100000 nM.

The compound `Cc1cc2c3c(c1)C(c1ccccc1)=NC(n1c(C)nc4cccc(C(=O)O)c4c1=O)C(=O)N3CC2` (stereo not drawn) [Example 6F, 2-methyl-3-(9-methyl-4-oxo-1-phenyl-3,4,6,7-tetrahydro[1,4]diazepino[6,7,1-hi]indol-3-yl)-4-oxo-3,4-dihydroquinazoline-5-carboxylic acid] displayed an IC50 greater than 100000 nM. The compound `COC(=O)c1ccc2c(=O)n(C3N=C(c4ccccc4)c4cc(C)cc5c4N(CC5)C3=O)c(C)nc2c1` (stereo not drawn) [Example 7A, Methyl 2-methyl-3-(9-methyl-4-oxo-1-phenyl-3,4,6,7-tetrahydro-[1,4]diazepino[6,7,1-hi]indol-3-yl)-4-oxo-3,4-dihydroquinazoline-7-carboxylate] yielded an IC50 of 157 nM. In other words, the sub-micromolar range. Same read-out and setting: as for `Cc1cc2c3c(c1)C(c1ccccc1)=NC(n1c(C)nc4cc(C(=O)O)ccc4c1=O)C(=O)N3CC2` [Example 7C, Salt of 2-methyl-3-(9-methyl-4-oxo-1-phenyl-3,4,6,7-tetrahydro[1,4]diazepino[6,7,1-hi]indol-3-yl)-4-oxo-3,4-dihydroquin azoline-7-carboxylic acid with D-glucamine], the figure is 66 nM; as for `Cc1cc2c3c(c1)C(c1ccccc1)=NC(n1c(C)nc4cc(C(N)=O)ccc4c1=O)C(=O)N3CC2` (stereo not drawn) [Example 8, 2-methyl-3-(9-methyl-4-oxo-1-phenyl-3,4,6,7-tetrahydro-[1,4]diazepino[6,7,1-hi]indol-3-yl)-4-oxo-3,4-dihydroquinazoline-7-carboxamide], 50 nM; as for `Cc1cc2c3c(c1)C(c1ccccc1)=NC(n1c(C)nc4cc(-c5nnn[nH]5)ccc4c1=O)C(=O)N3CC2` (stereo not drawn) [Example 8B], 28 nM. Compound `CNC(=O)c1ccc2c(=O)n(C3N=C(c4ccccc4)c4cc(C)cc5c4N(CC5)C3=O)c(C)nc2c1` (stereo not drawn) [Example 9, 2-methyl-3-(9-methyl-4-oxo-1-phenyl-3,4,6,7-tetrahydro-[1,4]diazepino[6,7,1-hi]indol-3-yl)-4-oxo-3,4-dihydroquinazoline-7-(N-methylcarboxamide)] yielded a 50% inhibitory concentration (IC50) of 63 nM. This IC50 lies about 2.2-fold higher than the previous one. The same measure, in the same setting: as for `Cc1cc2c3c(c1)C(c1ccccc1)=NC(n1c(C)nc4cc(C(=O)N(C)C)ccc4c1=O)C(=O)N3CC2` (stereo not drawn) [Example 9A, 2-methyl-3-(9-methyl-4-oxo-1-phenyl-3,4,6,7-tetrahydro[1,4]diazepino[6,7,1-hi]indol-3-yl)-4-oxo-3,4dihydroquinazoline-7-N-dimethylearboxamide], the figure is 122 nM.

The compound `Cc1cc2c3c(c1)C(c1ccccc1)=NC(n1c(C)nc4cc(C(=O)NCCN5CCOCC5)ccc4c1=O)C(=O)N3CC2` (stereo not drawn) [Example 9B, 2-methyl-3-(9-methyl-4-oxo-1-phenyl-3,4,6,7-tetrahydro[1,4]diazepino[6,7,1-hi]indol-3-yl) 4-oxo-3,4-dihydroquinazoline-7-carboxylic acid (2-morpholin-4-yl-ethyl)amide] had an IC50 of 95 nM. The IC50 values of the last two compounds are within 1.5-fold of each other. With `Cc1cc2c3c(c1)C(c1ccccc1)=NC(n1c(C)nc4cc(C(=O)NCCCN5CCOCC5)ccc4c1=O)C(=O)N3CC2` (stereo not drawn) [Example 9C], it took 69 nM to reach half-maximal inhibition (IC50). As for `Cc1cc2c3c(c1)C(c1ccccc1)=NC(n1c(C)nc4cc(C(=O)NCCN)ccc4c1=O)C(=O)N3CC2` (stereo not drawn) [Example 9D, 2-methyl-3-(9-methyl-4-oxo-1-phenyl-3,4,6,7-tetrahydro[1,4]diazepino[6,7,1-hi]indol-3-yl)-4-oxo-3,4-dihydroquinazoline-7-(2-amino)ethylcarboxamide], 119 nM corresponded to half-maximal inhibition (IC50). Compound `Cc1cc2c3c(c1)C(c1ccccc1)=NC(n1c(C)nc4cc(C(=O)N5CCN(CCO)CC5)ccc4c1=O)C(=O)N3CC2` (stereo not drawn) [Example 9F, 3-{7-[4-(2-hydroxyethyl)piperazine-1-carbonyl]-2-methyl-4-oxo-4H-quinazolin-3-yl}-9-methyl-1-phenyl-6,7-dihydro-3H-[1,4]diazepino[6,7,1-hi]indol-4-one] had a half-maximal inhibitory concentration (IC50) of 192 nM. Regarding `Cc1cc2c3c(c1)C(c1ccccc1)=NC(n1c(C)nc4cc(C(=O)N5CCN(CCO)CC5)ccc4c1=O)C(=O)N3CC2` (stereo not drawn) [Example 9G], the IC50 was 137 nM.

The assay is the same for the next values; noted with them: listed as 7B.
For `Cc1cc2c3c(c1)C(c1ccccc1)=NC(n1c(C)nc4cc(C(=O)O)ccc4c1=O)C(=O)N3CC2` (racemic) [Example 7, 2-methyl-3-(9-methyl-4-oxo-1-phenyl-3,4,6,7-tetrahydro-[1,4]diazepino[6,7,1-hi]indol-3-yl)-4-oxo-3,4-dihydroquinazoline-7-carboxylic acid], the IC50 amounted to 57 nM. This lies in the double-digit nanomolar range.
